Key:
[1] = tested on: rat liver microsomes, P450-RLMs Dex-induced; assay: Metabolism with rat liver microsomes (Dex-induced P450-RLMs); type: in vitro ADME; details: 0.05 mM compound, 2 mM NADPH; for conversion rate: 2 mg/mL Dex-induced P450-RLMs, 30 min; for substrate consumption: Dex-induced P450-RLMs, 10 min
Experimental: The initial studies on drug metabolism of new UAs were performed with rat liver microsomes under the optimal conditions. HEPES buffer (0.1 M) at pH 7.4 with 2 mM NADPH and 0.05 mM UAs (C-2028 and C-2045) were selected.
UT-RLMs (2 mg/mL) and P450-RLMs induced with Dex, 3MC, or PB and recombinant P4502C19 and P4503A4 (1 mg/mL) were assayed for activity toward tested UAs as follows. The proteins were incubated in a buffer containing 0.1 M HEPES (pH 7.4), 2 mM MgCl2 with 0.05 mM substrate in total volume 70 µL. Substrates were added also in buffer HEPES, pH 7.4. Reactions were started by the addition of NADPH (2 mM) and were incubated for specified time at 37 °C. The reactions were stopped by the addition of 8.75 µL of 1 M HCl, followed by centrifugation at 13,400 rpm for 10 min to pellet the denatured protein. The supernatant fractions were used for high-performance liquid chromatography (HPLC) analysis. Control reactions omitting substrate were run with each assay. All incubations were performed in two repetitions.

UGT 1A6 = target: T1, UGT 1A6 (Homo sapiens, UniProt P19224); assay: Glucuronidation with recombinant UGT1A6; type: in vitro ADME; parameters: key: −: the lack of UGT activity; +: the significant UGT activity; details: 0.05 mM compound, 1 mg/mL UGT, 5 mM UDPGA
T1 construct: His tag; purchased Corning, NY, USA (through DIAG-MED, Poland); host or cells: baculovirus-insect cells (Supersomes); Results say Sf9 cells
T1 sequence (P19224 27-532): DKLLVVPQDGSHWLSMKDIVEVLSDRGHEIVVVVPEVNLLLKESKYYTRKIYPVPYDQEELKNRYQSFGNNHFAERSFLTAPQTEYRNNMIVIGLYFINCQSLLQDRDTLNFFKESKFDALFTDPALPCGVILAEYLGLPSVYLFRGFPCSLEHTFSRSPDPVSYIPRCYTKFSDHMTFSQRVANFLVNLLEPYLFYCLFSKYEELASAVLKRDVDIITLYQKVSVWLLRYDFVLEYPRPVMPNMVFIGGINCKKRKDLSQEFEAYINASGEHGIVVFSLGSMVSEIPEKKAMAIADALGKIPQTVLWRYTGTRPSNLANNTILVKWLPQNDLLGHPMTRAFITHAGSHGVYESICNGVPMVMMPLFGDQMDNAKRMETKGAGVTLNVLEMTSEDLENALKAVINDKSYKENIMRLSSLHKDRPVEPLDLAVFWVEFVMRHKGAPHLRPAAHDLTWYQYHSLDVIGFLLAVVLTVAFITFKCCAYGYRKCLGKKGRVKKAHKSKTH
Experimental: Recombinant UGT isoform protein (1 mg/mL) was assayed for activity toward tested UAs as follows. The proteins were incubated in a buffer containing 0.1 M HEPES (pH 7.4), 8 mM MgCl2 and alamethicin (25 μg/mL) with either 0.05 mM substrate in total volume 70 µL (alamethicin was added to permeabilize the membrane). Substrates were also in buffer HEPES, pH 7.4. Reactions were started by the addition of UDPGA (5 mM) and were incubated for specified time at 37 °C. The reactions were stopped by the addition of 8.75 µL of 1 M HCl, followed by centrifugation at 13400 rpm for 10 min to pellet the denatured protein. The supernatant fractions were used for HPLC analysis. Control reactions omitting substrate were run with each assay. All incubations were performed in two repetitions.

[2] = Differential pulse voltammetry on glassy carbon electrode; type: physicochemical; details: 0.5–20 µM, 0.02 M borate buffer with 0.15 M NaCl, pH 7.4, glassy carbon electrode, vs Ag/AgCl/3 M KCl
Experimental: To minimize the effects of electrode absorption processes on the current signals, differential pulse voltammetry (DPV) was applied in the positive potential range. […] This behavior was not observed in the case of C-2045, where only one anodic signal at a potential of approximately 0.52 V was observed over the entire studied concentration range (0.5–20 µM). The linear dependency, I = f (cUAs), confirmed that the obtained anodic current signals can be used for analytical purposes; however, the signal of C-2028 was linear over a narrower concentration range than in the case of C-2045.
Cyclic voltammetry (CV) and differential pulse voltammetry (DVP) were performed in 0.02 M borate buffer with 0.15 M NaCl, in water pH 7.4. with Autolab, model PGSTAT 12 potentiostat equipped with an ECD amplifier module (RC time settings: 0.0 s for scan rates > 10 mV/s and 0.1 s for scan rates < 10 mV/s). The voltammetric measurements were done in the three-electrode system consisting of the working electrode (glassy carbon electrode, GCE; ϕ = 3 mm; BAS Instruments), the reference electrode (Ag/AgCl/3 M KCl) and a platinum wire as the auxiliary electrode. Before each experiment the surface of working electrode was polished with 1 μm Al2O3 powder on a wet pad. After each polishing, to remove alumina completely from the electrode surface, the surface was rinsed with direct stream of ultrapure water. […]

Row | conversion rate [1] [%] | substrate consumption [1] | Glucuronidation potency UGT 1A6 (UGT 1A6) | DPV anodic signal potential [2] | Structure (SMILES)
1 | 100 | completely consumed | − |  | CN(CCCNc1c2ccccc2nc2cccc([N+](=O)[O-])c12)CCCNc1ccc2ncn3c4ccccc4c(=O)c1c23 [C-2028]
2 | 80 | not metabolized |  | approximately 0.52 V | Cc1ccc([N+](=O)[O-])c2c(NCCCN(C)CCCNc3ccc4ncn5c6ccc(O)cc6c(=O)c3c45)c3ccccc3nc12 [C-2045]
3 |  |  | − |  | Cc1ccc([N+](=O)[O-])c2c(NCCCN(C)CCCNc3ccc4ncn5c6ccccc6c(=O)c3c45)c3ccccc3nc12 [C-2053]

From paper PMC8066102, “Metabolic Profiles of New Unsymmetrical Bisacridine Antitumor Agents in Electrochemical and Enzymatic Noncellular Systems and in Tumor Cells” (Pharmaceuticals, 2021)
